Assay results taken from patent US4894374A, “Substituted 1,2-dihydro-4h-3,1-benzoxazin-4-one derivatives inhibitors of interleukin 1” (American Home Products Corporation, priority 1988, dated 1990).

System: IL 1-induced release of neutral protease from rabbit articular chondrocytes
Test: inhibition of IL 1-induced release of neutral protease from rabbit articular chondrocytes
Format: cell-based, rabbit (New Zealand White)
Settings: Oryctolagus cuniculus, Chondrocyte, human IL 1 stimulation, 24 h, compound added 10 min before IL 1, ± S.D., read-out: % Inhibition (of protease secretion)
Method: The ability of the compounds of the inventions to inhibit interleukin 1 is measured by the ability of the test compounds to inhibit the IL 1-induced release of neutral protease from rabbit articular chondrocytes.
Male New Zealand White rabbits are anesthetized with 50 mg/kg of ketamine (i.m.) and killed by an intracardiac injection of 3 mls. of Nembutal. The knee joints of both legs are resected and the articular surfaces are exposed. Cartilage slices are obtained using a scalpel and are placed in a tissue culture dish (100 mm diameter) containing 10 mls of Hank's balanced salt solution (HBSS). The chondrocytes within the cartilage slices are then liberated by a series of enzyme digestions. The slices are incubated for 10 min. at 37° C. in 0.05% hyaluronidase (Sigma H-3884), rinsed with HBSS and incubated with 0.2% trypsin (Sigma T-2395) for 10 min. at 37° C. The slices are rinsed again and incubated for 10 mins. at 37° C. with 1.2% collagenase (Sigma C-5138). The slices are then rinsed again with HBSS and resuspended in 10 ml of Ham's F-12 medium containing 10% fetal bovine calf serum (FCS) and 0.2 % collagenase and incubated overnight at 37° C. in a 5% CO2 incubator. The next day, the medium containing the digested cartilage fragments and liberated chondrocytes is transferred to a 15 ml centrifuge tube and the cells are collected by centrifugation and washed twice and resuspended in Ham's F-12 medium. The cells are then plated into 24-well tissue culture plates (2×10^5 cells/well) and incubated at 37° C. until confluent (usually 4-6 days).
The confluent chondrocytes are rinsed twice with serum-free Ham's F-12 medium and 1 ml is added to each well. Fifty μl of purified human IL 1 (100 Units/ml; Genzyme Corporation, Boston, MA) is then added to stimulate these cells to secrete neutral protease. To measure drug effects, the cells are treated with test compound 10 min. prior to addition of IL 1. The standard screening dose is 10 μM. Twenty-four hours after IL 1 stimulation, supernatant fluids are collected and assayed for neutral protease activity.
The neutral protease activity of chondrocyte supernatant fluids is determined by their ability to degrade an insoluble protease substrate, azocoll (Sigma). Supernatants are treated for 10 min. at room temperature with 350 μM p-aminophenylmercuric acetate to activate the latent enzyme. Three hundred μl of supernatant is then mixed with 500 μl of a 20 mg/ml suspension of azocoll and incubated at 37° C. for 18-24 hrs. with gentle rocking. The mixtures are centrifuged and the amount of substrate hydrolyzed is determined by measuring the absorbance of the supernatant at 520 nm.
Drug effects are calculated as the % change in enzyme activity (absorbance)by supernatants from drug-treated chondrocytes relative to enzyme activity of supernatants from vehicle-treated chondrocytes as follows: % Inhibition of Protease Secretion= [formula]

N#Cc1ccc(N2CCC3(CC2)Nc2cc(Cl)ccc2C(=O)O3)cc1 [Example 1, 4-[7-Chloro-1,3-dihydro-4-oxospiro[2H-3,1-benzoxazine-2,4'-piperidin]-1-yl]benzonitrile]
inhibition at 1 µM: 56 ± 22% | inhibition at 5 µM: 55 ± 19% | inhibition at 10 µM: 47 ± 34%

CS(=O)(=O)c1ccc(N2CCC3(CC2)Nc2cc(Cl)ccc2C(=O)O3)cc1 [Example 2, 7-Chloro-1'-[4-(methylsulfonyl)phenyl]spiro[2H-3,1-benzoxazine-2,4'-piperidin]-4(1H)-one]
inhibition at 1 µM: 30 ± 31% | inhibition at 5 µM: 48 ± 7% | inhibition at 10 µM: 51 ± 32%
